Experimental data published in publication PMC7502707, “Characterization and validation of a preventative therapy for hypertrophic cardiomyopathy in a murine model of the disease” (Proceedings of the National Academy of Sciences of the …, 2020).

Key:
[1] = tested on: myocytes isolated from wt and cTnI-G203S mice; assay: Flavoprotein oxidation in myocytes isolated from treated mice; type: in vivo, mouse; settings: myocytes from precardiomyopathic cTnI-G203S mice treated 10 μM i.p. 3×/wk/5 wk from 20 wk
Method: Male mice expressing the human cTnI gene encoding the human disease-causing mutation cTnI-G203S were used for all studies. […] Male mice expressing the normal human cTnI gene were used as controls (wt). Ten-week-old mice were used for in vitro studies. For in vivo studies, 20- or 30-wk-old cTnI-G203S mice were treated with 10 μM AID-TAT or AID[S]-TAT via intraperitoneal injection, 3×/wk/5 wk. In vivo dose of AID-TAT or AID[S]-TAT (10 μM) was calculated based on blood volume, equating to ∼2 mg/kg total BW. Male animal models were used to eliminate potential differences in responses due to sex. Experiments were performed in a total of 21 wt (AID[S]-TAT), 6 wt (AID-TAT), 15 cTnI-G203S (AID[S]-TAT), and 26 cTnI-G203S (AID-TAT) mice. All animals were randomly assigned to treatment groups.
Fluorescence was measured on a Hamamatsu Orca ER digital camera attached to an inverted Nikon TE2000-U microscope. […]
Additionally, individual 580 nm and 535 nm wavelength signals were assessed in each experiment to determine whether the fluorescent indicator was accurately measuring m. […] Ratiometric JC-1 or flavoprotein fluorescent signals were quantified by manually tracing myocytes and subtracting an equivalent background region […]

[2] = tested on: myocytes isolated from cTnI-G203S mice; assay: Cell size of myocytes isolated from treated mice; type: in vivo, mouse; settings: 10 μM 3×/wk/5 wk, compared to AID(S)-TAT
Method: Cell size was determined as previously described ([64]). Detailed methods are provided in SI Appendix.
(§1) Echocardiographic measurement of left ventricular function were performed on mice under light methoxyflurane anesthesia using an i13L probe on a Vivid 7 Dimension ultrasound system (GE Healthcare, Little Chalfont, United Kingdom) as previously described (4, 7). Echocardiographic measurements were taken on M-mode in triplicate from separate mice at a sweep speed of 200 mm/s. Each n represents the average of quantitative measurements from wt or cTnI-G203S mice for each treatment group. […] FS was calculated by the formula [(LVEDD-LVESD)/EDD] x 100.
(§2) Cell size was determined as previously described (16). […]
(§3) To measure kidney toxicity, urea and creatinine concentration was assessed using QuantiChrom Urea and Creatinine assay kits respectively (BioAssay Systems, Hayward CA). To measure liver toxicity, alanine transaminase (ALT) and aspartate transaminase (AST) concentration was measured using Alanine Transaminase and Aspartate Transaminase assay kits respectively (BioAssay Systems, Hayward CA). […]

[3] = tested on: myocytes isolated from wt and cTnI-G203S mice; assay: MTT assay (formation of formazan) in myocytes isolated from treated mice; type: in vivo, mouse; settings: myocytes from precardiomyopathic cTnI-G203S mice treated 10 μM i.p. 3×/wk/5 wk from 20 wk
Method: The rate of reduction of MTT (Sigma-Aldrich) to formazan by the mitochondrial electron transport chain was measured in intact mouse cardiac myocytes, as previously described ([22], [25]). Each n represents number of replicates for each treatment group from cardiac myocytes isolated from a total of six wt [AID(S)-TAT], four cTnI-G203S [AID(S)-TAT], and three (AID-TAT) mice. Detailed methods are provided in SI Appendix. […]
The rate of reduction of 3-(4,5-Dimethyl-2-thiazolyl)-2,5-diphenyl-2H-tetrazolium bromide (MTT, Sigma-Aldrich, St. Louis, Missouri) to formazan by the mitochondrial electron transport chain was measured in intact mouse cardiac myocytes as previously described (1, 9). This reaction is dependent upon the presence of reduced nicotinamide adenine dinucleotide (NADH) and reduced nicotinamide adenine dinucleotide phosphate (NADPH), and intact mitochondrial electron transport (10). Cardiac myocytes were treated with relevant drugs in 96 well plates. MTT was added to each well to a final concentration of 0.5 mg/ml and the rate of the increase in absorbance immediately measured using a spectrophotometer at 37°C (PowerWave XS, 570 nm, reference wavelength of 620 nm). The rate of the increase in absorbance in response to treatments was expressed as a percentage of the rate of the increase prior to the addition of treatments. Each n represents number of replicates for each treatment group from cardiac myocytes isolated from a total of 6 wt (AID[S]- TAT), 4 cTnI-G203S (AID[S]-TAT), and 3 (AID-TAT) mice.
Immunoblot of ICa-L protein

[4] = tested on: rats; settings: cited from earlier work
[5] = tested on: myocytes isolated from wt and cTnI-G203S mice; assay: Confocal imaging of F-actin (phalloidin) in myocytes from treated mice; type: in vivo, mouse; settings: myocytes from cTnI-G203S mice treated 10 μM 3×/wk/5 wk, Pre HCM Rx
Method: Following completion of treatment regimens, myocytes were isolated and prepared for confocal imaging based on previously described methods ([29]). Detailed methods are provided in SI Appendix.
as §1, §2, §3

[6] = tested on: wt and cTnI-G203S mice; assay: Toxicity parameters: terminal serum urea, creatinine, ALT, AST and body weight; type: in vivo, mouse
Method: Mice were treated with 10 μM AID(S)-TAT or AID-TAT 3×/wk/5 wk (equaling 15 doses). BW was recorded prior to administration of each peptide dose, and reported as a percentage of day 1 BW. A 5 to 10% reduction in BW directed increased monitoring as recommended by The Animal Ethics Committee of The University of Western Australia in accordance with the 2008 Guidelines to Promote the Wellbeing of Animals Used for Scientific Purposes ([65]). Following completion of treatment regimen, mice were anesthetized and terminal blood collected. Serum was extracted and used to measure kidney and liver toxicity as previously described ([66]). Detailed methods are provided in SI Appendix.
Echocardiographic measurement of left ventricular function were performed on mice under light methoxyflurane anesthesia using an i13L probe on a Vivid 7 Dimension ultrasound system (GE Healthcare, Little Chalfont, United Kingdom) as previously described (4, 7). Echocardiographic measurements were taken on M-mode in triplicate from separate mice at a sweep speed of 200 mm/s. Each n represents the average of quantitative measurements from wt or cTnI-G203S mice for each treatment group. Measurements of left ventricular end diastolic diameter (LVEDD), left ventricular end systolic diameter (LVESD), fractional shortening (FS), left ventricular posterior wall in diastole (LVDPW), left ventricular posterior wall in systole (LVSPW), interventricular septum in diastole (IVSD), interventricular septum in systole (IVSS) and end diastolic diameter (EDD) were made. FS was calculated by the formula [(LVEDD-LVESD)/EDD] x 100.
as §2, §3

[7] = terminal serum, 10 μM 3×/wk/5 wk

**Q.** For QQLEEDLKGYLDWITQAE [AID-TAT], which “increase in flavoprotein oxidation following BayK(−)” value [1] is on record?
**A.** reduced this response to a level comparable to that observed in wt myocytes

**Q.** What about the “echocardiographic parameters and cell size” value ([2]; 30-wk-old cTnI-G203S mice) of the same sequence?
**A.** did not significantly improve echocardiographic parameters, or alter cell size

**Q.** And the myocyte cell size ([2]; precardiomyopathic cTnI-G203S mice)?
**A.** significantly lower cell size

**Q.** What about the “increase in metabolic activity (formazan from MTT) following BayK(−)” value [3] of the same sequence?
**A.** reduced this response to a level comparable to that observed in wt myocytes

**Q.** What about the “contractility and cardiac hypertrophy” value ([4]; following coronary artery occlusion in rats) of the same sequence?
**A.** improves contractility and prevents the development of cardiac hypertrophy

**Q.** What about the “blood pressure and cardiac myocyte calcium influx” value ([4]; rat, in vivo) of the same sequence?
**A.** without decreasing blood pressure or altering cardiac myocyte calcium influx

**Q.** And the F-actin organization [5]?
**A.** F-actin organization comparable to wt myocytes

**Q.** And the “body weight over the course of treatment” value ([6]; 15 doses, % of day 1 BW)?
**A.** no significant reduction

**Q.** And the “kidney toxicity: serum urea and creatinine” value [6, 7]?
**A.** No significant alterations

**Q.** What about the “liver toxicity: serum ALT and AST” value [6, 7] of the same sequence?
**A.** No significant alterations
